{"source": "paper PMC9303275", "about": "“Direct adenylation from 5′-OH-terminated oligonucleotides by a fusion enzyme containing Pfu RNA ligase and T4 polynucleotide kinase” (Nucleic Acids Research, 2022)", "molecules": {"B1": {"name": "Pfu RNA ligase (enzyme, Pyrococcus furiosus, UniProt Q8U3V2 1-379, looked up)", "chain": "MVSSKFKELLYTLGIPEDKVEILEARGGIMEDEFEGIRYLRFKNSVGKLRRGTVLFEDGTTVFGFPHIKRIVNLSAGVRKIFKSSEFYVEEKVDGYNVRVVKFKDRILGITRGGFICPYTTERIAEFVPEEFFKDHKDLVLVGEMAGPESPYLVEGPPYVKEDIQFFLFDIQDIKTGSSLPVEERLKLAEEYGINHVEVFGRYSYKDIDDLYELIERLSREGREGIVMKSPDMKKIVKYVTPYANINDIKIGARVFYELPGGYFTSRISRLAFYIAEKKIRGEELHNLALQLGKALLQPLVEAIHDVTQGDVIAERFRVRVRKIETAYKMVTHFEKLGLEIEIEDIEEIEGGWRVTFKRVYPEATREIRDLIGGKAFVD", "notes": "Pfu RNA ligase (Pfu Rnl) of Pyrococcus furiosus, encoded by the PF0353 gene, 379 amino acids, full length; No tag removal is described; also called Pfu Rnl; Q8U3V2 protein; source: E. coli BL21(DE3), purified (HisTrap FF, HiTrap Heparin HP)"}}, "key": {"Pfu RNA ligase (Pfu Rnl)": {"molecular_target": "T1, Pfu RNA ligase (Pfu Rnl) (Pyrococcus furiosus, UniProt Q8U3V2)", "T1 construct": "gene PF0353; full length, 379 aa, N-terminal 8xHis tag (not reported cut), codon optimised, pET28a, E. coli BL21(DE3), ~42 kDa, mainly homodimer", "T1 sequence (Q8U3V2 1-379)": "B1 chain", "assay": "oligonucleotide adenylation, denaturing urea-PAGE, SYBR Gold", "format": "biochemical"}, "Mth RNA ligase (Mth Rnl)": {"molecular_target": "T2, Mth RNA ligase (Mth Rnl) (Methanothermobacter thermautotrophicus, UniProt O27289)", "T2 construct": "gene MTH_1221; commercial enzyme (New England Biolabs, 5' DNA adenylation kit)", "T2 sequence (O27289 1-381)": "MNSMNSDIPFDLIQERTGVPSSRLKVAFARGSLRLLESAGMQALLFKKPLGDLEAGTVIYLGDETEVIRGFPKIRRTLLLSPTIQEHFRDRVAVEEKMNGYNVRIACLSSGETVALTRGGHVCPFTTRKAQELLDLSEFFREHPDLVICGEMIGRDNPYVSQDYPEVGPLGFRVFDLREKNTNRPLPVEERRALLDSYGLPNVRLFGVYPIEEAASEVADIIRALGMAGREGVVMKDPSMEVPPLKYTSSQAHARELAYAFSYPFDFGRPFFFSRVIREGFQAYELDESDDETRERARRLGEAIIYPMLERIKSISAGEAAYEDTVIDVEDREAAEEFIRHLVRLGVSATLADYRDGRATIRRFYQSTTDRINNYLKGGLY", "assay": "oligonucleotide adenylation, denaturing urea-PAGE", "format": "biochemical", "details": "5'-phosphorylated 55-nt ssDNA; commercial kit protocol"}, "[1]": {"molecular_target": "the molecule itself", "assay": "SEC; gel filtration on HiLoad 26/600 Superdex 200 pg, 50 mM phosphate, 150 mM NaCl, pH 7.0, 2.6 ml/min; elution volumes compared with molecular weight standards; each protein loaded separately"}}}
{"molecule": "Nc1ncnc2c1ncn2[C@@H]1O[C@H](COP(=O)(O)OP(=O)(O)O)[C@@H](O)[C@H]1O", "note": "[ADP]", "values": [{"measurement": "oligonucleotide adenylation, denaturing urea-PAGE, SYBR Gold", "setting": "Pfu RNA ligase (Pfu Rnl); 5'-phosphorylated 17-nt and 55-nt ssDNA, 5 mM MgCl2, 70 mM Tris-HCl pH 7.0, 80 °C, weak activity", "result": "weak catalytic activity with ADP and almost no catalytic activity with AMP"}]}
{"molecule": "Nc1ncnc2c1ncn2[C@@H]1O[C@H](COP(=O)(O)OP(=O)(O)OP(=O)(O)O)[C@@H](O)[C@H]1O", "note": "[ATP]", "values": [{"measurement": "oligonucleotide adenylation, denaturing urea-PAGE", "setting": "Mth RNA ligase (Mth Rnl)", "result": "As expected, both enzymes achieved near complete conversion"}, {"measurement": "oligonucleotide adenylation, denaturing urea-PAGE, SYBR Gold", "setting": "Pfu RNA ligase (Pfu Rnl); 5'-phosphorylated ssDNA, 5 mM MgCl2, 70 mM Tris-HCl pH 7.0, 5 mM DTT, 80 °C, 30 min", "result": "Pfu Rnl showed the best activity with ATP as the adenosyl source"}]}
{"molecule": "B1", "values": [{"measurement": "stoichiometry N", "setting": "[1]", "result": 2}]}
